In patent US20220324909A1, “THERAPEUTIC PEPTIDES” (COHBAR, INC., priority 2019, published 2022):
Non-standard residues stand in square brackets, D forms with d. No end group written: not given here.

What was measured:
[1] = tested on: 3T3-L1 mouse adipocytes; test: Free fatty acid levels in cultured 3T3-L1 mouse adipocytes and insulin dependence (Example 17); assay type: cell-based; details: isoproterenol 0.1 nM; for Free Fatty Acid Levels, Percent of Isoproterenol Control Activity No Insulin: peptide 10 μM alone, relative to isoproterenol treated cells; for Free Fatty Acid Levels, Percent of Isoproterenol Control Activity With Insulin: peptide 10 μM with 0.25 nM insulin, relative to 0.25 nM insulin treated cells
Protocol: The effect of the peptides on fatty acid metabolism can be assessed using an assay to monitor free fatty acid levels produced by cultured cells such as mouse adipocytes. […] Following 3 h incubation, conditioned medium from each well was transferred to a fresh 96-well plate. […] Absorbance values were expressed as percent control activity relative to 0.1 nM isoproterenol treated cells (no insulin) for 10 μM peptide alone or 0.25 nM insulin treated cells (with insulin) for 10 μM peptide in presence of 0.25 nM insulin. […] Data are presented as averages values from 2-3 independent experiments with each data point performed in triplicate.

[2] = tested on: H4-IIE cells; test: Glucose production in cultured H4-IIE cells and insulin dependence; assay type: cell-based, rat; details: 24 h; for Glucose Production, Percent of Control Activity No Insulin: peptide 10 μM alone, relative to untreated cells; for Glucose Production, Percent of Control Activity With Insulin: peptide 10 μM with 800 μM insulin, relative to insulin treated cells
Protocol: The effect of the peptides on glucose homeostasis can be assessed using an assay to monitor glucose production by cultured cells such as rat hepatocytes. […] Following 24 h incubation, conditioned medium from each well was transferred to a fresh 96-well plate. Glucose concentrations in the medium were determined using a Glucose Assay kit (Abcam; Cambridge, Mass.) according to the manufacturer's instructions; absorbance measured using a Cytation 3 plate reader at 570 nm (BioTek, Winooski, Vt.). […] Untreated cells were used as reference for maximal glucose production. […] Insulin at 800 μM was used as a modest inhibitor glucose production. […] Data are presented as averages values from 2-4 independent experiments with each data point performed in triplicate.

[3] = tested on: C2C12 cells; test: Glucose utilization in cultured C2C12 cells and insulin dependence; assay type: cell-based, mouse; details: for Glucose Utilization, Percent of Control Activity No Insulin: peptide 10 μM alone, glucose in medium relative to untreated cells; for Glucose Utilization, Percent of Control Activity No Insulin / Glucose Utilization, Percent of Control Activity With Insulin: 22 h; for Glucose Utilization, Percent of Control Activity With Insulin: peptide 10 μM with 5-20 nM insulin, glucose in medium relative to insulin treated cells
Text: The effect of the peptides on glucose homeostasis can be assessed using an assay to monitor glucose utilization by cultured cells such as mouse myotubes. […] C2C12 mouse muscle cell line was purchased from Millipore Sigma (Saint Louis, Mo.). […] Three days after plating the medium was removed and with Differentiation Medium (DMEM/low glucose (1 g/L)+2% Horse Serum+antibiotics) added. […] After 5 days of differentiation, the medium was removed from myotube cultures and replaced with Assay Medium (DMEM/low glucose (1 g/L)+antibiotics). […] Following the 5 h incubation the medium was removed and fresh Assay Medium containing compounds added; 10 μM peptide in absence or presence of 5-20 nM insulin, or 1 mM metformin as a potent stimulator of glucose utilization. […] Following 22 h incubation, conditioned medium from each well was transferred to a fresh 96-well plate. Glucose concentrations in the medium were determined using a Glucose Assay kit (Abcam; Cambridge, Mass.) according to the manufacturer's instructions; absorbance measured using a Cytation 3 plate reader at 570 nm (BioTek, Winooski, Vt.). Absorbance values were expressed as percent control activity relative to untreated treated cells (no insulin) for 10 μM peptide alone or 5-20 nM insulin treated cells (with insulin) for 10 μM peptide in presence of 5-20 nM insulin. Untreated cells were used as reference for basal glucose utilization. The relative standard deviation from plate to plate of untreated control was <10%. Metformin at 1 mM was used as a potent control for increasing glucose utilization. Glucose levels for metformin (1 mM) treatment were <10% of the untreated control value. Data are presented as averages values from 2-3 independent experiments with each data point performed in triplicate.

Molecule	Free Fatty Acid Levels, Percent of Isoproterenol Control Activity No Insulin [1]	Free Fatty Acid Levels, Percent of Isoproterenol Control Activity With Insulin [1]	Glucose Production, Percent of Control Activity No Insulin [2]	Glucose Utilization, Percent of Control Activity No Insulin [3]	Glucose Utilization, Percent of Control Activity With Insulin [3]	Glucose Production, Percent of Control Activity With Insulin [2]	Glucose levels, % of untreated control value ([3]; metformin 1 mM, positive control)
33 (RRLLGLVFQSLCG[dA]) [compound 33]	98%	80%	113.8%				
39 (RRMMGMVFQSLEG[dA]) [compound 39]	97%	67%	103.9%				
48 (MMGMVFQSL) [compound 48]	92%	93%	110.0%				
40 (RRLLGLVEQSLCG[dA]) [compound 40]	101%	76%	109.6%				
58 (RRMMGMVFQ) [compound 58]	110%	114%	114.5%				
59 (RRMMGMVFQS) [compound 59]	111%	114%	114.0%				
22 (RRMVYQCLCG[dA]; cysteine pairing not given here) [compound 22]	107%	61.9%	109.8%	100.9%	79.8%	49.1%	
29 (RRMMGMVYQCLEG[dA]) [compound 29]	110%	52.8%	113.9%	99.2%	92.3%	148.6%	
30 (RRMMGMVAQCLEGA; (14)..(14) RRMMGMVAQCLEG(A) [compound 30]	102%	56.0%	105.7%	97.7%	88.3%	65.7%	
54 (RMMGMVFQSLCG[dA]) [compound 54]	102%	75%	112.8%				
38 (RRMMGMVEQSLCG[dA]) [compound 38]	101%	68%	98.5%				
60 (RRMMGMVFQSL) [compound 60]	110%	101%	115.9%				
45 (MMGMVF) [compound 45]	105%	89%	106.9%				
50 (RMMGMVF) [compound 50]	103%	101%	99.8%				
34 (RXMMGMVFQSLCGA; (2)..(2) Xaa is Aib (alpha-aminoisobutyric acid); (14)..(14) D-Ala) [compound 34]	104%	122%	96.9%				
53 (RMMGMVFQSL) [compound 53]	101%	81%	91.9%				

Molecule	Free Fatty Acid Levels, Percent of Isoproterenol Control Activity No Insulin [1]	Free Fatty Acid Levels, Percent of Isoproterenol Control Activity With Insulin [1]	Glucose Production, Percent of Control Activity No Insulin [2]	Glucose Utilization, Percent of Control Activity No Insulin [3]	Glucose Utilization, Percent of Control Activity With Insulin [3]	Glucose Production, Percent of Control Activity With Insulin [2]	Glucose levels, % of untreated control value ([3]; metformin 1 mM, positive control)
49 (MMGMVFQSLCG[dA]) [compound 49]	101%	103%	120.1%				
35 (RXLLGLVFQSLCGA; (2)..(2) Xaa is Aib (alpha-aminoisobutyric acid); (14)..(14) D-Ala) [compound 35]	101%	112%	98.1%				
55 (RRMMGM) [compound 55]	100%	90%	92.6%				
51 (RMMGMVFQ) [compound 51]	99%	79%	106.1%				
CC[C@H](C)[C@H](NC(=O)CNC(=O)[C@@H](NC(=O)[C@@H](NC(=O)[C@H](CCCNC(=N)N)NC(=O)[C@@H](N)CCCNC(=N)N)[C@@H](C)CC)[C@@H](C)CC)C(=O)N[C@H](C(=O)N[C@@H](Cc1ccccc1)C(=O)N[C@@H](CCC(N)=O)C(=O)N[C@@H](CO)C(=O)N[C@@H](CC(C)C)C(=O)N[C@@H](CS)C(=O)NCC(=O)N[C@H](C)C(=O)O)C(C)C [compound 43]	103%	91%	115.8%				
CN(C)C(=N)N=C(N)N [metformin, reference compound]							< 10%
47 (MMGMVFQS) [compound 47]	101%	93%	108.0%				
44 (MMGMV) [compound 44]	103%	96%	98.8%				
41 (RRLLGLVFQSLEG[dA]) [compound 41]	97%	73%	122.7%				
46 (MMGMVFQ) [compound 46]	98%	104%	105.0%				
62 (RRMMGMVFQSLCG[dA]-NH2) [compound 62]	112%	109%	105.6%				
56 (RRMMGMV) [compound 56]	99%	94%	97.1%				
63 (Ac-RRMMGMVFQSLCG[dA]-NH2) [compound 63]	112%	92%	107.5%				
57 (RRMMGMVF) [compound 57]	96%	87%	98.3%				
61 (Ac-RRMMGMVFQSLCG[dA]) [compound 61]	112%	143%	122.7%				
52 (RMMGMVFQS) [compound 52]	102%	79%	108.4%				
